Test results published in patent publication US20100204203A1, “Chemical Compounds 637: Pyridopyrimidinediones as PDE4 Inhibitors” (priority 2007, published 2010).

The molecules below were run against recombinant Human Phosphodiesterase B2 (PDE4B2) (Homo sapiens, UniProt Q07343) (assay: Human Phosphodiesterase B2 Radiometric Assay (yttrium silicate SPA beads, [3H]cyclic AMP)). Conditions: recombinant human PDE4B2, radiometric SPA assay, 8 nM [3H]cyclic AMP; read-out: PDE4B2 pIC50 (converted).
Format: biochemical
Procedure, shortened: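 Read-out is scintillation proximity: yttrium silicate beads (with 18 mM ZnSO4, added to stop the reaction) bind 5′AMP formed from 8 nM [3H]cAMP over 20 min. Beforehand, compound and 0.1 mg/mL enzyme were preincubated 30 min at 30 °C in pH 7.5 HEPES buffer with MgCl2, EGTA and Brij 35; pIC50 values were curve-fitted.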

Chain of recombinant Human Phosphodiesterase B2 (PDE4B2) (Q07343 1-564 isoform Q07343-2): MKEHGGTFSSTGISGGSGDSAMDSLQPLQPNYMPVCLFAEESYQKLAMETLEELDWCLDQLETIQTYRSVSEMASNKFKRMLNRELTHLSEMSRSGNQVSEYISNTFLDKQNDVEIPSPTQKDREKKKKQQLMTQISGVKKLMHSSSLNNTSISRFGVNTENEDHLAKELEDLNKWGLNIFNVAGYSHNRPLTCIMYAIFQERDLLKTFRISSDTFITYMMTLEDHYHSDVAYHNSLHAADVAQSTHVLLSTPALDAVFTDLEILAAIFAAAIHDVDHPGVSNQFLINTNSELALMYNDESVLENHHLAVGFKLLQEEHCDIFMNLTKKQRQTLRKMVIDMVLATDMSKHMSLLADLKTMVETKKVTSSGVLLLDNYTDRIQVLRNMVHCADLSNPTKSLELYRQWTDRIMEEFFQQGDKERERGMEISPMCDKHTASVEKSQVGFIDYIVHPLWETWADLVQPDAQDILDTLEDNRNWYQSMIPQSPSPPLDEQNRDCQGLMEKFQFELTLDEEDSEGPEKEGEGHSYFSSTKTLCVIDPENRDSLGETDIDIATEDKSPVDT

Row | SMILES | IC50 [nM]
1 | Cc1cc(C(=O)N[C@H]2CC[C@@H](n3c(=O)c4cc(F)cnc4n(-c4cccc(-c5ccc(CN6CCN(CC(=O)N(C)C)CC6)cc5)c4)c3=O)CC2)nn1C [Example 216] | 0.0126
2 | O=C(N[C@H]1CC[C@@H](n2c(=O)c3cc(F)cnc3n(-c3cccc(-c4ccc(CC5CCNCC5)cc4)c3)c2=O)CC1)c1cn2cc(F)ccc2n1 [Example 345, 6-fluoro-N-{cis-4-[6-fluoro-2,4-dioxo-1-[4′-(piperidin-4-ylmethyl)biphenyl-3-yl]-1,4-dihydropyrido[2,3-d]pyrimidin-3(2H)-yl]cyclohexyl}imidazo[1,2-a]pyridine-2-carboxamide] | 0.0316
3 | Cc1ccccc1-c1cccc(-n2c(=O)n([C@H]3CC[C@@H](N)CC3)c(=O)c3cc(F)cnc32)c1 [Example 52, 3-(cis-4-aminocyclohexyl)-6-fluoro-1-(2′-methylbiphenyl-3-yl)pyrido[2,3-d]pyrimidine-2,4(1H,3H)-dione] | 2.51
4 | O=Cc1ccc(-c2cccc(-n3c(=O)n([C@H]4CC[C@@H](NC(=O)c5cn6cc(F)ccc6n5)CC4)c(=O)c4cc(F)cnc43)c2)cc1 [Example 24, 6-fluoro-N-{cis-4-[6-fluoro-1-(4′-formylbiphenyl-3-yl)-2,4-dioxo-1,4-dihydropyrido[2,3-d]pyrimidin-3(2H)-yl]cyclohexyl}imidazo[1,2-a]pyridine-2-carboxamide.] | 0.00794
5 | NC1(C(=O)N[C@H]2CC[C@@H](n3c(=O)c4cc(F)cnc4n(-c4cccc(-c5ccccc5)c4)c3=O)CC2)CC1 [Example 344, 1-amino-N-[cis-4-(1-biphenyl-3-yl-6-fluoro-2,4-dioxo-1,4-dihydropyrido[2,3-d]pyrimidin-3(2H)-yl)cyclohexyl]cyclopropanecarboxamide] | 0.398
6 | COCCNCc1ccc(-c2cccc(-n3c(=O)n([C@H]4CC[C@@H](NC(=O)c5cc(C)n(C)n5)CC4)c(=O)c4cc(F)cnc43)c2)cc1 [Example 117, N-{cis-4-[6-fluoro-1-(4′-{[(2-methoxyethyl)amino]methyl}biphen-yl-3-yl)-2,4-dioxo-1,4-dihydropyrido[2,3-d]pyrimidin-3(2H)-yl]cyclohexyl}-1,5-dimethyl-1H-pyrazole-3-carboxamide] | 0.126
7 | CC(C)(C)OC(=O)NCc1ccc(-c2cccc(-n3c(=O)n([C@H]4CC[C@@H](NC(=O)c5cn6cc(F)ccc6n5)CC4)c(=O)c4cc(F)cnc43)c2)cc1 [Example 21, tert-butyl ({3′-[6-fluoro-3-(cis-4-{[(6-fluoroimidazo[1,2-a]pyridin-2-yl)carbonyl]amino}cyclohexyl)-2,4-dioxo-3,4-dihydropyrido[2,3-d]pyrimidin-1(2H)-yl]biphenyl-4-yl}methyl)carbamate.] | 0.0501
8 | CC(C)N1CCN(Cc2ccc(-c3cccc(-n4c(=O)n([C@H]5CC[C@@H](NC(=O)c6cn7c(n6)CCCC7)CC5)c(=O)c5cc(F)cnc54)c3)cc2)CC1 [Example 134, N-{cis-4-[6-fluoro-1-{4′-[(4-isopropylpiperazin-1-yl)methyl]biphenyl-3-yl}-2,4-dioxo-1,4-dihydropyrido[2,3-d]pyrimidin-3(2H)-yl]cyclohexyl}-5,6,7,8-tetrahydroimidazo[1,2-a]pyridine-2-carboxamide] | 0.00794

The remaining lines, values ahead:

Row | IC50 [nM] | SMILES
9 | 0.0501 | Cc1cc(C(=O)N[C@H]2CC[C@@H](n3c(=O)c4cc(F)cnc4n(-c4cccc(-c5ccc(CN6CCCCC6)cc5)c4)c3=O)CC2)nn1C [Example 112, N-{cis-4-[6-fluoro-2,4-dioxo-1-[4′-(piperidin-1-ylmethyl)biphenyl-3-yl]-1,4-dihydropyrido[2,3-d]pyrimidin-3(2H)-yl]cyclohexyl}-1,5-dimethyl-1H-pyrazole-3-carboxamide]
10 | 0.01 | CC(=O)N1CCN(Cc2cc(O)ccc2-c2cccc(-n3c(=O)n([C@H]4CC[C@@H](NCc5cn6cc(F)ccc6n5)CC4)c(=O)c4cc(F)cnc43)c2)CC1 [Example 328, 1-{2′-[(4-acetylpiperazin-1-yl)methyl]-4′-hydroxybiphenyl-3-yl}-6-fluoro-3-(cis-4-{[(6-fluoroimidazo[1,2-a]pyridin-2-yl)methyl]amino}cyclohexyl)pyrido [2,3-d]pyrimidine-2,4(1H,3H)-dione]
11 | 0.0631 | O=c1c2cc(F)cnc2n(-c2cccc(-c3ccc(O)cc3CN3CCOCC3)c2)c(=O)n1[C@H]1CC[C@@H](NCc2ncc3ccccn23)CC1 [Example 374, 6-fluoro-1-[4′-hydroxy-2′-(morpholin-4-ylmethyl)biphenyl-3-yl]-3-{cis-4-[(imidazo[1,5-a]pyridin-3-ylmethyl)amino]cyclohexyl}pyrido[2,3-d] pyrimidine-2,4(1H,3H)-dione]
12 | 0.631 | O=c1c2cc(F)cnc2n(-c2cccc(-c3ccc(O)cc3CN3CCCOCC3)c2)c(=O)n1[C@H]1CC[C@@H](NCc2cccn3ccnc23)CC1 [Example 372, 6-fluoro-1-[4′-hydroxy-2′-(1,4-oxazepan-4-ylmethyl)biphenyl-3-yl]-3-{cis-4-[(imidazo[1,2-a]pyridin-8-ylmethyl)amino]cyclohexyl}pyrido[2,3-d]pyrimidine-2,4(1H,3H)-dione]
13 | 0.794 | O=c1c2cc(F)cnc2n(-c2cccc(-c3ccccc3)c2)c(=O)n1[C@H]1CC[C@@H](NCc2cn3cc(F)ccc3n2)CC1 [Example 74, 1-biphenyl-3-yl-6-fluoro-3-(cis-4-{[(6-fluoroimidazo[1,2-a]pyridin-2-yl)methyl]amino}cyclohexyl)pyrido[2,3-d]pyrimidine-2,4(1H,3H)-dione]
14 | 0.00631 | CC(=O)N1CCN(Cc2ccc(-c3cccc(-n4c(=O)n([C@H]5CC[C@@H](NC(=O)c6cn7c(n6)CCCC7)CC5)c(=O)c5cc(F)cnc54)c3)cc2)CC1 [Example 218, N-{cis-4-[1-{4′-[(4-acetylpiperazin-1-yl)methyl]biphenyl-3-yl}-6-fluoro-2,4-dioxo-1,4-dihydropyrido[2,3-d]pyrimidin-3(2H)-yl]cyclohexyl}-5,6,7,8-tetrahydroimidazo[1,2-a]pyridine-2-carboxamide]
15 | 1.26 | CC(C)c1ccc(CN[C@H]2CC[C@@H](n3c(=O)c4cc(F)cnc4n(-c4cccc(-c5ccc(O)cc5CN5CCOCC5)c4)c3=O)CC2)cc1 [Example 283, 6-fluoro-1-[4′-hydroxy-2′-(morpholin-4-ylmethyl)biphenyl-3-yl]-3-{cis-4-[(4-isopropylbenzyl)amino]cyclohexyl} pyrido[2,3-d]pyrimidine-2,4(1H,3H)-dione]
16 | 0.2 | CC(C)C(=O)N[C@H]1CC[C@@H](n2c(=O)c3cc(F)cnc3n(-c3cccc(-c4ccc(CN5CCN(C(C)C)CC5)cc4)c3)c2=O)CC1 [Example 238, N-{cis-4-[6-fluoro-1-{4′-[(4-isopropylpiperazin-1-yl)methyl]biphenyl-3-yl}-2,4-dioxo-1,4-di-hydropyrido[2,3-d]pyrimidin-3(2H)-yl]cyclohexyl}-2-methyl-propanamide]
17 | 0.631 | CN(C)CC(=O)N[C@H]1CC[C@@H](n2c(=O)c3cc(F)cnc3n(-c3cccc(-c4ccc(CN5CCCN(C)CC5)cc4)c3)c2=O)CC1 [Example 287, N-{cis-4-[6-fluoro-1-{4′-[(4-methyl-1,4-diazepan-1-yl)methyl]biphenyl-3-yl}-2,4-dioxo-1,4-dihydropyrido[2,3-d]pyrimidin-3(2H)-yl]cyclohexyl}-N^2,N^2-dimethylglycinamide]
